Assay results taken from ChEMBL document CHEMBL4342404, “Anti-cholinesterase hybrids as multi-target-directed ligands against Alzheimer's disease (1998-2018)” (Bioorg Med Chem, 2019).

Columns and labels:
[1] = biological target: Amine oxidase [flavin-containing] B (Homo sapiens, UniProt P27338); assay: Inhibition of recombinant human MAO-B using p-tyramine as substrate preincubated for 15 mins followed by substrate addition and measured over 15 mins by Amplex red reagent/horseradish peroxidase coupled fluorescence assay
[2] = biological target: T1, Acetylcholinesterase (Homo sapiens, UniProt P22303); assay: Inhibition of human acetylcholinesterase by Ellman's method
T1 sequence (P22303 whole entry): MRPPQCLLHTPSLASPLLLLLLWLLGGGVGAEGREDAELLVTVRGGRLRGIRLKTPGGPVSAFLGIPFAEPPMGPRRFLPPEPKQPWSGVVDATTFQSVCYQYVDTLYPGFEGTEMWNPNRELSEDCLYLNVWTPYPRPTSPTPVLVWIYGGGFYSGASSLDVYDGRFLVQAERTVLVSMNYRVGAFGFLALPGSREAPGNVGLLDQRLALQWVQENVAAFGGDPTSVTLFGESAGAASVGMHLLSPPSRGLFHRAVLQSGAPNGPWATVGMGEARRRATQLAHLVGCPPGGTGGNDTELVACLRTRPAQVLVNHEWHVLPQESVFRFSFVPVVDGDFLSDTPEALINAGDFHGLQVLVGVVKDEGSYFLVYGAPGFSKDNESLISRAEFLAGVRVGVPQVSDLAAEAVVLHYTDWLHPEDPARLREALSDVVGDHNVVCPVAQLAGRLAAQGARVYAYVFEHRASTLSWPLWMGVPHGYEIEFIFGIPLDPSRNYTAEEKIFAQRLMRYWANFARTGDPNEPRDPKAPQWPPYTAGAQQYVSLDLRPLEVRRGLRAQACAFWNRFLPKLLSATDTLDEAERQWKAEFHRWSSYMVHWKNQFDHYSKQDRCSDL

[3] = biological target: T1, Acetylcholinesterase; assay: Inhibition of human acetylcholinesterase using acetylthiocholine as substrate pretreated followed by substrate addition and measured after 15 mins by Ellman's method
[4] = species: Homo sapiens; assay: Selectivity index, ratio of IC50 for human AChE to IC50 for human BuChE
[5] = biological target: T2, Cholinesterase (Homo sapiens, UniProt P06276); assay: Inhibition of human butyrylcholinesterase using butyrylthiocholine iodide as substrate pretreated followed by substrate addition and measured after 15 mins by Ellman's method
T2 sequence (P06276 whole entry): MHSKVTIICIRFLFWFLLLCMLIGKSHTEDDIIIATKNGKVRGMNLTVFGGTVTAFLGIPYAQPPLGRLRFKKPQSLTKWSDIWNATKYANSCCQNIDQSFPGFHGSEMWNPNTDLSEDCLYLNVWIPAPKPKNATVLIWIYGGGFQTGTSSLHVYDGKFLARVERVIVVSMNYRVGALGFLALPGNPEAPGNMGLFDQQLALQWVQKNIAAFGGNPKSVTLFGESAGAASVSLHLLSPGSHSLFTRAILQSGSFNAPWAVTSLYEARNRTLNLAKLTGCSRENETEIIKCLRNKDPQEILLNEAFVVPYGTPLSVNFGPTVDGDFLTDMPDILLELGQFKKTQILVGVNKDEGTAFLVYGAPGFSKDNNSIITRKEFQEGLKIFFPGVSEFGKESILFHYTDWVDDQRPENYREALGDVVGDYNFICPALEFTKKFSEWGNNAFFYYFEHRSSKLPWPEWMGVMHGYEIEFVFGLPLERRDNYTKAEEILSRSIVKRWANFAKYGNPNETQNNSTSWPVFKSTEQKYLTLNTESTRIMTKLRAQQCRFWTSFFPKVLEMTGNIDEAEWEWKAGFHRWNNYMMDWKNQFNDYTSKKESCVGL

[6] = biological target: T3, Cholinesterase (Equus caballus, UniProt P81908); assay: Inhibition of equine serum BuChE using butyrylthiocholine iodide as substrate pretreated followed by substrate addition and measured after 2 mins by Ellman's method
T3 sequence (P81908 whole entry): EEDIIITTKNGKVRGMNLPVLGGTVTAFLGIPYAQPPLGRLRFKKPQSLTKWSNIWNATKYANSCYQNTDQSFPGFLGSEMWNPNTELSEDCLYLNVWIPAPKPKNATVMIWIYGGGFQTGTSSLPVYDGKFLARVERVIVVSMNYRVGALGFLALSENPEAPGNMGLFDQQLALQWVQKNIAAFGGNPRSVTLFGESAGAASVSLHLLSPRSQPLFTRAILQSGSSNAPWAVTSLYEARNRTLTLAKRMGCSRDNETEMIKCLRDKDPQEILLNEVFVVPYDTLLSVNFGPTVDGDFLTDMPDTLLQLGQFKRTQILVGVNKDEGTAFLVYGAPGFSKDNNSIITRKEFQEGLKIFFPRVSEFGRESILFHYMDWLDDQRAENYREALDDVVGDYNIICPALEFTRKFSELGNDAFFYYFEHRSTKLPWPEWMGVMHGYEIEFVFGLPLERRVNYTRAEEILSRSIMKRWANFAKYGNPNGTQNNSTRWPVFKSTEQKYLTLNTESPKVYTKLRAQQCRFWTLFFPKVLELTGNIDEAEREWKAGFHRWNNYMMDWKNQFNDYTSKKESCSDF

[7] = biological target: T4, Acetylcholinesterase (Electrophorus electricus, UniProt O42275); assay: Inhibition of electric eel AChE using acetylthiocholine iodide as substrate pretreated followed by substrate addition and measured after 2 mins by Ellman's method
T4 sequence (O42275 whole entry): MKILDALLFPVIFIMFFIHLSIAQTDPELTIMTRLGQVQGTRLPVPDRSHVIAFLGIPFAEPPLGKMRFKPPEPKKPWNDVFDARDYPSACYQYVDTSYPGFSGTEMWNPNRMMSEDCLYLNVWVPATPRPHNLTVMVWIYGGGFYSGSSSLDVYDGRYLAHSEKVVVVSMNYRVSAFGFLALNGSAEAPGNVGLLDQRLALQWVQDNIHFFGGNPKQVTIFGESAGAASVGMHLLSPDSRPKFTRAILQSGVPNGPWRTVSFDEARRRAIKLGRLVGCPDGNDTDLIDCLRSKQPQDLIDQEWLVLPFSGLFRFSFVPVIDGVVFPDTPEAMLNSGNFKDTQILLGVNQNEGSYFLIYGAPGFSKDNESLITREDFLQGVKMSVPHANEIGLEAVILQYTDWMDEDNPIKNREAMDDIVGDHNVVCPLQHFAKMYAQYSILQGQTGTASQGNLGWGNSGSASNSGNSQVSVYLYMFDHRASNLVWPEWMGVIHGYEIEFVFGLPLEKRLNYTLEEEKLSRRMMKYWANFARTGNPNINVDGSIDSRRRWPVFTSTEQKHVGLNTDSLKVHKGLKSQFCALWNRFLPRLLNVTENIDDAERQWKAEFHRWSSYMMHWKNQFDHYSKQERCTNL

[8] = biological target: Acetylcholinesterase (Rattus norvegicus) (UniProt P37136); assay: Inhibition of acetylcholinesterase in Wistar rat primary cortical neuron cells assessed as reduction in amyloidbeta40 level at […] incubated for 24 hrs by ELISA relative to control
Sequence of Acetylcholinesterase (Rattus norvegicus) (P37136 whole entry): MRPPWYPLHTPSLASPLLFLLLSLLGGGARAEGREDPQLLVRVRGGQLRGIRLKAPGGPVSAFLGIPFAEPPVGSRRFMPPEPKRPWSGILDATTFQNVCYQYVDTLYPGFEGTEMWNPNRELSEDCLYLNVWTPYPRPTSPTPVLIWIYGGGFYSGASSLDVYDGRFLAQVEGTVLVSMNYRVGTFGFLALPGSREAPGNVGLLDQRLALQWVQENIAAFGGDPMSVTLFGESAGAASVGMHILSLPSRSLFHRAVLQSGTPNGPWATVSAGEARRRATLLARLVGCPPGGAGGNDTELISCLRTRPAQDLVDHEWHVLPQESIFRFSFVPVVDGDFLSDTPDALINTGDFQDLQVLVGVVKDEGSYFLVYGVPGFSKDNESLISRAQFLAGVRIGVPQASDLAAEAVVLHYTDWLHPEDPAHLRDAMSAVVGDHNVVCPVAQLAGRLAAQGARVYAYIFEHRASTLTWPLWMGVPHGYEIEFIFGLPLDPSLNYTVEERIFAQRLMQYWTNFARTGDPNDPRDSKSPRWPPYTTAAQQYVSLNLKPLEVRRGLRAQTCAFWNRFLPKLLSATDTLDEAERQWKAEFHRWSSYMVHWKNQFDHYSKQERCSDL

[9] = biological target: T3, Cholinesterase; assay: Inhibition of equine serum BuChE using butyrylthiocholine iodide as substrate pretreated 60 mins followed by substrate addition by Ellman's method
[10] = biological target: T1, Acetylcholinesterase; assay: Inhibition of AChE (unknown origin)-induced human amyloid beta 1 to 40 aggregation at 100 uM by thioflavin-T fluorescence method relative to control
[11] = biological target: T3, Cholinesterase; assay: Inhibition of equine serum BuChE using S-butyrylthiocholine iodide as substrate preincubated for 6 mins followed by substrate addition and measured up to 180 secs by Ellman's method
[12] = biological target: T4, Acetylcholinesterase; assay: Inhibition of electric eel AChE using acetylthiocholine iodide as substrate preincubated for 6 mins followed by substrate addition and measured up to 180 secs by Ellman's method
[13] = test system: Rattus norvegicus; assay: In vivo inhibition of MAO-B in Sprague-Dawley rat at 26 mg/kg, po administered for 2 weeks by radioassay method relative to control; assay type: functional; conditions: 336 h
[14] = test system: Rattus norvegicus; assay: In vivo inhibition of MAO-A in Sprague-Dawley rat at 26 mg/kg, po administered for 2 weeks by radioassay method relative to control; assay type: functional; conditions: 336 h
[15] = Cytotoxicity against human HepG2 cells assessed as cell viability at 1000 uM by MTT assay relative to control; assay type: cell-based; conditions: read-out: Activity
[16] = Antioxidant activity assessed as AAPH radical scavenging activity measured every min for 60 mins by ORAC-FL assay relative to trolox; assay type: functional
[17] = biological target: T2, Cholinesterase; assay: Inhibition of human serum butyrylcholinesterase using butyrylthiocholine iodide as substrate preincubated for 20 mins followed by substrate addition preincubated for 20 mins followed by substrate addition by Ellman's method
[18] = biological target: T2, Cholinesterase; assay: Inhibition of human butyrylcholinesterase by Ellman's method
[19] = biological target: T1, Acetylcholinesterase; assay: Inhibition of human erythrocyte acetylcholinesterase using acetylthiocholine as substrate preincubated for 60 mins followed by substrate addition by Ellman's method
[20] = biological target: T1, Acetylcholinesterase; assay: Inhibition of human Acetylcholinesterase using acetylthiocholine as substrate preincubated for 20 mins followed by substrate addition by Ellman's method
[21] = biological target: T2, Cholinesterase; assay: Inhibition of human serum butyrylcholinesterase using butyrylthiocholine iodide as substrate preincubated for 20 mins followed by substrate addition by Ellman's method
[22] = biological target: T1, Acetylcholinesterase; assay: Inhibition of human AChE-induced amyloid beta 1 to 40 (unknown origin) aggregation at 100 uM by thioflavin-T fluorescence method relative to control
[23] = biological target: T5, Beta-secretase 1 (Homo sapiens, UniProt P56817); assay: Inhibition human BACE1 expressed in baculovirus expression system at 10 uM using Panvera peptide as substrate preincubated for 60 mins followed by substrate addition and measured after 60 mins by spectrofluorometric assay relative to control
T5 sequence (P56817 whole entry): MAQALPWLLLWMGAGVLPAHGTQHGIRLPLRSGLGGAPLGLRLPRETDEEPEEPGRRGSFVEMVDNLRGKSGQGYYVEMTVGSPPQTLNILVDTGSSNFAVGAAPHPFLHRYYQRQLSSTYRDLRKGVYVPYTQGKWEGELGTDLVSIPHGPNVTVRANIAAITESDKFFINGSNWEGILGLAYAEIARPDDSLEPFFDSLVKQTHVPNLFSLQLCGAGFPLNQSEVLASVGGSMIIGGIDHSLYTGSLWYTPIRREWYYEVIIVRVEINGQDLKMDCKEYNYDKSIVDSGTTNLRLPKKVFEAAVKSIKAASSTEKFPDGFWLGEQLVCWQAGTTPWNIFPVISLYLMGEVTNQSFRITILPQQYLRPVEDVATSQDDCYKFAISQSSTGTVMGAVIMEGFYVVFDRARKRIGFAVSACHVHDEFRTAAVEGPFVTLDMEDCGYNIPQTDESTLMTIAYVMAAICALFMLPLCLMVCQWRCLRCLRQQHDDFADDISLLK

[24] = biological target: T5, Beta-secretase 1; assay: Inhibition human BACE1 expressed in baculovirus expression system using Panvera peptide as substrate preincubated for 60 mins followed by substrate addition and measured after 60 mins by spectrofluorometric assay
[25] = biological target: Amyloid-beta precursor protein (Homo sapiens) (UniProt P05067); assay: Inhibition of HFIP pretreated amyloid beta (1-42) (unknown origin) self aggregation at 10 uM incubated for 24 hrs by thioflavin T based fluorescence assay relative to control
Sequence of Amyloid-beta precursor protein (Homo sapiens) (P05067 whole entry): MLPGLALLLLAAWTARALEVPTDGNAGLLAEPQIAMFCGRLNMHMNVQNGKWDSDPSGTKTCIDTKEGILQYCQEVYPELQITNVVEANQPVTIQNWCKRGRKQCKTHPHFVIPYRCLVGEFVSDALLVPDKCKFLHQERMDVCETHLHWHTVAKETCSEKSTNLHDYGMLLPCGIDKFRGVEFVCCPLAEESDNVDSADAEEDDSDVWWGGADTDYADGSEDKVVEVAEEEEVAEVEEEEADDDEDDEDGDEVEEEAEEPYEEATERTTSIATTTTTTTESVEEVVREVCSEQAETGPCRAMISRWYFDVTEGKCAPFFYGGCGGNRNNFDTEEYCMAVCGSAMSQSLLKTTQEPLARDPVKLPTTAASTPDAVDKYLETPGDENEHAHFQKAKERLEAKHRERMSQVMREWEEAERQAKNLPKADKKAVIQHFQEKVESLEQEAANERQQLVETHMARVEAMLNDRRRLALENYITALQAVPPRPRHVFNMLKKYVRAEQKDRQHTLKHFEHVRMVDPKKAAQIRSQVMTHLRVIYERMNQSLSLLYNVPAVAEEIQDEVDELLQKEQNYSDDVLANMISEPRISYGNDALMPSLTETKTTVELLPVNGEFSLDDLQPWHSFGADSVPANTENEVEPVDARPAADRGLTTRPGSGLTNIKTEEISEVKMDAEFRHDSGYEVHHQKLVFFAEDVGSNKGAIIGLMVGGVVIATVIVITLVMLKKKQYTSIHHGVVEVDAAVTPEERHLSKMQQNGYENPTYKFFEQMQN

[26] = biological target: Amyloid-beta precursor protein (Homo sapiens) (UniProt P05067); assay: Inhibition of HFIP pretreated amyloid beta (1-42) (unknown origin) self aggregation at 20 uM incubated for 48 hrs by thioflavin T based fluorescence assay relative to control
[27] = Antioxidant activity assessed as trolox equivalent of AAPH radical scavenging activity at 10 uM preincubated for 10 mins followed by APPH addition and measured every min for 120 mins by ORAC-FL assay relative to trolox; assay type: functional
[28] = biological target: T1, Acetylcholinesterase; assay: biochemical
Description: Inhibition of human acetylcholinesterase expressed in HEK 293 cells using acetylthiocholine iodide as substrate by Ellman's method

[29] = biological target: T2, Cholinesterase; assay: Inhibition of human plasma butyrylcholinesterase by Ellman's method
[30] = biological target: Amine oxidase [flavin-containing] A (Homo sapiens, UniProt P21397)
Sequence of Amine oxidase [flavin-containing] A (P21397 whole entry): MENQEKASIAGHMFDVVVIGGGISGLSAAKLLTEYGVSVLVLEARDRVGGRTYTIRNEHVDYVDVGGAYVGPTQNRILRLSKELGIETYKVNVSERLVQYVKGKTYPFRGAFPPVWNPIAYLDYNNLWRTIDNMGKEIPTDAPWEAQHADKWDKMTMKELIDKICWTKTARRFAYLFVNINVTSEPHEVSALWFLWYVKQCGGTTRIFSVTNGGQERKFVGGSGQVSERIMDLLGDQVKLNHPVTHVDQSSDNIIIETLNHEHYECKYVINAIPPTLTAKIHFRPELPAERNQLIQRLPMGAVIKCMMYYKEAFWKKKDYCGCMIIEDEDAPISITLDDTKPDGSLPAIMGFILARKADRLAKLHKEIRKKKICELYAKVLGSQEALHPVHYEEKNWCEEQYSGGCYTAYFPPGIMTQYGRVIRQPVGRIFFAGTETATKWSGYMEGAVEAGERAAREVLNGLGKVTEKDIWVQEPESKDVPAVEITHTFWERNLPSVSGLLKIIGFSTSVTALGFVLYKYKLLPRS
Description: Inhibition of recombinant human MAOA expressed in baculovirus infected BTI insect cells using p-tyramine as substrate preincubated for 30 mins followed by substrate addition by Amplex red reagent/horseradish peroxidase coupled fluorescence assay

[31] = biological target: Histamine H3 receptor (Homo sapiens, UniProt Q9Y5N1); assay: biochemical
Description: Displacement of [3H]-N-alpha-methylhistamine from human H3R expressed in HEK293 cell membranes incubated for 90 mins by liquid scintillation counting method

Cc1cc(=O)oc2ccc(OC/C=C/CCn3cnc4c(N5CCCCC5)ncnc43)cc12
IC50 [1]: 6800 nM | IC50 [2]: 11900 nM

COc1cc(/C=C/C(=O)NCCNc2c3c(nc4ccccc24)CCCC3)ccc1OCc1ccccc1
IC50 [3]: 55.1 nM | Selectivity Index [4]: 1 | IC50 [5]: 55.9 nM | IC50 [6]: 52.6 nM | IC50 [7]: 15.8 nM

CC(C(=O)NCCCCCCNc1c2c(nc3ccccc13)CCCC2)c1ccc(-c2ccccc2)c(F)c1 (stereo unspecified)
inhibition [8]: 31%

C#CCN(C)C(C)Cc1cccc(OC(=O)N(C)CCCCCC)c1 (racemic)
IC50 [9]: 720 nM

O=C(NCCCCCCNc1c2c(nc3ccccc13)CCCC2)c1cc(O)c2c(c1)C(=O)c1cccc(O)c1C2=O
inhibition [10]: 70.2% | IC50 [11]: 200 nM | IC50 [12]: 27.3 nM

C#CCN[C@@H]1CCc2ccc(OC(=O)N(C)CC)cc21 [LADOSTIGIL]
inhibition in vivo at 26 mg/kg [13]: 71% | inhibition in vivo at 26 mg/kg [14]: 66%

COc1ccc2nc3c(c(NCCCCCCCCN(CC(=O)Nc4ccc5ccccc5c4)C(=O)/C=C/c4ccc(O)c(OC)c4)c2c1)CCCC3
viability at 1000 µM [15]: 59.4% | Ratio [16]: 4.29 | IC50 [17]: 68.2 nM

Cc1cc(=O)oc2cc(OC/C=C/CCn3cnc4c(N5CCCC5)ncnc43)ccc12
IC50 [18]: 4650 nM

C#CCN(C)C(C)Cc1cccc(OC(=O)N(C)CCCCCC)c1 (single isomer, unassigned; (+))
IC50 [19]: 2000 nM

c1ccc2c(NCc3ccc(-c4ccc(CNc5c6c(nc7ccccc57)CCCC6)cc4)cc3)c3c(nc2c1)CCCC3
IC50 [20]: 3.61 nM | IC50 [21]: 0.86 nM | inhibition [22]: 61.8% | inhibition [23]: 89.7% | IC50 [24]: 2770 nM | inhibition [25]: 75.5%

Oc1ccc(/C=C/c2cc(O)c3ncccc3c2)cc1
inhibition [26]: 71.7% | Ratio (umolequiv/umol) [27]: 2.18

C#CCN(C)Cc1cc2cc(OCCCC3CCN(Cc4ccccc4)CC3)ccc2n1C
IC50 [28]: 810 nM | IC50 [29]: 1820 nM | IC50 [30]: 0.27 nM | Ki [31]: 84.2 nM
